Here are results for four molecules from ChEMBL document CHEMBL1201862, “PubChem BioAssay data set” (2004).

Among the test systems are MDA-MB-231; SF-268; UACC-257; SF-539; SW-620; NCI/ADR-RES; 786-0; HOP-62; SN12C; HCT-116; CCRF-CEM; HCT-15; MCF7; A549; NCI-H522; U-251; SNB-75; SK-MEL-28; M14.
Holding throughout (test): DTP human tumour cell line panel, 48 h

Molecules are shown by their SMILES.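 Each compound was tested at five concentrations against cells in 96-well plates for 48 hours. The concentration for 50% growth inhibition is given as GI50.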 Active and inactive are the calls of the source. Cut-off read from the data, not from the text of the source: active = GI50 up to about 1.1 µM and inactive = higher. Some results are limits rather than exact numbers.

As a reminder, the GI50 is the concentration that inhibits growth by half. On to `O=C1c2ccccc2-c2nc(-c3cccs3)cc3c2c1nc1ccccc13`, for which the GI50 with MDA-MB-231 is 58.3 µM (inactive); in the assay on SF-268 it was 12.5 µM (inactive); in the assay on UACC-257, 14.1 µM (inactive); in the assay with SF-539, 24.5 µM (inactive); with SW-620, 13.8 µM (inactive); with NCI/ADR-RES, 74.6 µM (inactive). For the same molecule, the GI50 in the assay on 786-0 was 35.8 µM (inactive); in the assay on HOP-62 it was 22 µM (inactive); in the assay on SN12C, > 100 µM (inactive); in the assay on HCT-116, 14.3 µM (inactive); in the assay with CCRF-CEM, 22.3 µM (inactive); in the assay with HCT-15, 15.2 µM. The GI50 was 13 µM (inactive) with MCF7; 9.29 µM (inactive) in the assay on A549; 12.7 µM (inactive) with NCI-H522; 18.6 µM (inactive) in the assay with U-251; 24.9 µM (inactive) in the assay on SNB-75; 17.5 µM (inactive) in the assay with SK-MEL-28. Moreover, the GI50 with M14 was 3.27 µM (inactive).
On to `COc1ccc2c(O)c(S(=O)(=O)c3ccc(C)cc3)c(=O)oc2c1OC`, for which the GI50 in the assay on MDA-MB-231, in the assay with SF-268, with UACC-257, in the assay on SF-539, in the assay with SW-620 and with NCI/ADR-RES was > 100 µM (inactive) throughout. Also, the GI50 in the assay with 786-0 was > 100 µM (inactive); with SN12C, > 100 µM (inactive); in the assay with HCT-116, > 100 µM (inactive); with CCRF-CEM, > 100 µM (inactive); with HCT-15, greater than 100 µM; in the assay with MCF7, > 100 µM (inactive). Besides, the GI50 in the assay with A549, in the assay with NCI-H522, in the assay with U-251, in the assay with SNB-75, in the assay on SK-MEL-28 and in the assay on M14 was > 100 µM (inactive) throughout.
Regarding `O=C(CSC1=NC(=O)C2(NN1)c1ccccc1-c1ccccc12)NC(=S)Nc1ccccc1`, the GI50 was > 10 µM (inactive) with MDA-MB-231; > 10 µM (inactive) in the assay with SF-268; > 10 µM (inactive) in the assay with UACC-257; > 10 µM (inactive) in the assay on SF-539; > 10 µM (inactive) in the assay on SW-620; 7.76 µM (inactive) in the assay on NCI/ADR-RES. Besides, the GI50 was > 10 µM (inactive) in the assay on 786-0; > 10 µM (inactive) with HOP-62; > 10 µM (inactive) in the assay on SN12C; > 10 µM (inactive) in the assay on HCT-116; > 10 µM (inactive) in the assay on CCRF-CEM; greater than 10 µM in the assay with HCT-15. The GI50 with MCF7 was 4.27 µM (inactive); in the assay on A549, > 10 µM (inactive); in the assay with NCI-H522 it was 7.03 µM (inactive); with SNB-75, > 10 µM (inactive); with SK-MEL-28 it was > 10 µM (inactive); with M14 it was > 10 µM (inactive).
In the case of `OC(c1cc2ccc(C(F)(F)F)cc2c2cc(C(F)(F)F)ccc12)C1CCCCN1` (centres undefined), the GI50 in the assay with MDA-MB-231 was 1.73 µM (inactive); in the assay with SF-268, 1.64 µM (inactive); in the assay on UACC-257, 1.56 µM (inactive); in the assay on SF-539, 1.69 µM (inactive); with SW-620, 1.49 µM (inactive); in the assay with NCI/ADR-RES it was 1.82 µM (inactive). Also, the GI50 in the assay on 786-0 was 1.58 µM (inactive); in the assay with HOP-62, 1.85 µM (inactive); in the assay on SN12C, 1.74 µM (inactive); in the assay with HCT-116, 1.46 µM (inactive); with CCRF-CEM it was 1.78 µM (inactive); with HCT-15 it was 1.79 µM. The GI50 is 1.81 µM (inactive) in the assay on MCF7; 1.8 µM (inactive) in the assay on A549; 1.7 µM (inactive) in the assay on NCI-H522; 1.71 µM (inactive) in the assay with U-251; 1.29 µM (inactive) in the assay with SNB-75; 1.91 µM (inactive) with SK-MEL-28. For the same molecule, in the assay with M14, the GI50 was 1.88 µM (inactive).
